Patent US20240270736A1, “MACROCYCLIC HETEROCYCLES AND USES THEREOF” (Kumquat Biosciences Inc., priority 2022, published 2024)

What was measured:
Type in all cases: binding
wildtype KRAS = target: T1, wildtype KRAS (Homo sapiens, UniProt P01116); test: HTRF assay, interaction of wildtype KRAS with SOS1; details: Ras::SOS1 interaction, read-out: Inhibition of KRAS WT (IC50)
T1 construct: made in house; host or cells: E. coli, e.g. BL21 (DE3)
From the text: (§1) This assay can be also used to assess a selective inhibition or reduction of signaling output of a mutant Ras protein relative to a wildtype, or relative to a different mutant Ras protein. For example, the equilibrium interaction of wildtype Kras or K-Ras mutant (e.g., wildtype or a mutant thereof) with SOS1 (e.g., hSOS1) can be assessed as a proxy or an indication for a subject compound's ability to bind and inhibit Ras protein. The HTRF assay detects from (i) a fluorescence resonance energy transfer (FRET) donor (e.g., antiGST-Europium) that is bound to GST-tagged K-Ras mutant to (ii) a FRET acceptor (e.g., anti-6His-XL665) bound to a His-tagged hSOS1.
(§2) The assay buffer can contain ˜5 mM HEPES pH 7.4, ˜150 mM NaCl, ˜ 1 mM DTT, 0.05% BSA and 0.0025% (v/v) Igepal. A Ras working solution is prepared in an assay buffer containing typically a suitable amount of the protein construct (e.g., GST-tagged K-Ras mutant) and the FRET donor (e.g., antiGST-Eu(K) from Cisbio, France). A SOS1 working solution is prepared in an assay buffer containing suitable amount of the protein construct (e.g., His-hSOS1) and the FRET acceptor (e.g., anti-6His-XL665 from Cisbio, France). A suitable amount of the protein construct will depend on the range of activity or range of IC50 values being detected or under investigation. For detecting an IC50 within a range of 500 nM, the protein constructs of the same range of molarity can be utilized.
(§3) A fixed volume of DMSO with or without test compound is transferred into a 384-well plate. Ras working solution is added to all wells of the test plate. SOS1 working solution is added to all wells except for those that are subsequently filled with inhibitor control solution. Upon incubation for about 10 minutes or longer, the fluorescence is measured with a M1000Pro plate reader (Tecan) using HTRF detection (excitation 337 nm, emission 1: 620 nm, emission 2: 665 nm). Compounds are tested in duplicate at different concentrations (for example, 10 μM, 2.5 μM, 0.63 μM, 0.16 μM, 0.04 μM, 0.01 μM test compound). The ratiometric data (i.e., emission 2 divided by emission 1) is used to calculate IC50 values against Ras using GraphPad Prism (GraphPad software). Signaling output measured in terms of IC50 values can be obtained and a ratio of IC50 against one mutant relative to another mutant can be calculated. For instance, a selective reduction of K-Ras G12D signaling output can be evidenced by a ratio greater than one. In particular, a selective reduction of K-Ras G12D signaling relative to K-Ras WT signaling is evidenced if the ratio of IC50 (against K-Ras WT) to IC50 (against K-Ras G12D) is greater than 1.

KRAS G12V = target: T2, KRAS G12V (Homo sapiens, UniProt P01116, G12V); test: HTRF assay, interaction of KRAS G12V with SOS1; details: Ras::SOS1 interaction, read-out: Inhibition of KRAS G12V (IC50)
T2 construct: made in house; host or cells: E. coli, e.g. BL21 (DE3)
T2 sequence (P01116 1-188 isoform P01116-2 G12V): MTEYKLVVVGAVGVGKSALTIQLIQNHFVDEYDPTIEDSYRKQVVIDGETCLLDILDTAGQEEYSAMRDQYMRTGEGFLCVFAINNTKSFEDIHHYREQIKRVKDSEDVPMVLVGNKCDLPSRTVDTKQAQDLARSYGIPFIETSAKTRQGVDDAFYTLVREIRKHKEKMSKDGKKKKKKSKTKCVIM
From the text: as §1, §2, §3

KRAS G12D = target: T3, KRAS G12D (Homo sapiens, UniProt P01116, G12D); test: HTRF assay, interaction of KRAS G12D with SOS1; details: Ras::SOS1 interaction, read-out: Inhibition of KRAS G12D (IC50)
T3 construct: made in house; host or cells: E. coli, e.g. BL21 (DE3)
T3 sequence (P01116 1-188 isoform P01116-2 G12D): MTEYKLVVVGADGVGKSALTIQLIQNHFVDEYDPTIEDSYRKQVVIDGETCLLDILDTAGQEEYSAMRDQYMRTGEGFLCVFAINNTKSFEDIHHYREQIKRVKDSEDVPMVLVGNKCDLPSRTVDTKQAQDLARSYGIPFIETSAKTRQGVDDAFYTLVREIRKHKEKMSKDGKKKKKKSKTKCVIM
From the text: as §1, §2, §3

Measured: IC50

T1 sequence (P01116 1-188 isoform P01116-2): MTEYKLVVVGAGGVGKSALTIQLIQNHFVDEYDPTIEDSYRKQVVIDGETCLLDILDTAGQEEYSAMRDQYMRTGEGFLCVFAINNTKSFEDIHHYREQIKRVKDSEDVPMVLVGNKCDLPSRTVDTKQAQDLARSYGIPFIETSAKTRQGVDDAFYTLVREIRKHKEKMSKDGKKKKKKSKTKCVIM

CN1CCCCCN2CCOc3c(Cl)c(-c4ccc(F)c5sc(N)c(C#N)c45)c(F)c4nc(nc2c34)OCC2(CC2)C1 [Compound 149, 2-amino-4-(17′-chloro-19′-fluoro-7′-methyl-7′,8′,9′,10′,11′,12′,14′,15′-octahydro-4′H,6′H-spiro[cyclopropane-1,5′-[2,20](azeno)benzo[6,7][1,4]oxazepino[5,4-d][1]oxa[3,5,11]triazacyclotetradecin]-18′-yl)-7-fluorobenzo[b]thiophene-3-carbonitrile]
≤ 5 µM: all assays above

CN1CCCCCCN2CCOc3c(Cl)c(-c4ccc(F)c5sc(N)c(C#N)c45)c(F)c4nc(nc2c34)OCCC1 [Compound 153, 2-amino-4-(18-chloro-20-fluoro-7-methyl-4,5,6,7,8,9,10,11,12,13,15,16-dodecahydro-2,21-(azeno)benzo[6,7][1,4]oxazepino[5,4-d][1]oxa[3,5,12]triazacyclopentadecin-19-yl)-7-fluorobenzo[b]thiophene-3-carbonitrile]
≤ 5 µM: all assays above

CN(C)CC1CCCCCN2c3nc(nc4c(F)c(-c5ccc(F)c6sc(N)c(C#N)c56)c(Cl)c(c34)OC[C@@H]2C(F)F)O1 (stereo partly drawn) [Compound 156, 2-amino-4-((11R)-14-chloro-11-(difluoromethyl)-4-((dimethylamino)methyl)-16-fluoro-4,5,6,7,8,9,11,12-octahydro-2,17-(azeno)benzo[6,7][1,4]oxazepino[5,4-d][1]oxa[3,5]diazacycloundecin-15-yl)-7-fluorobenzo[b]thiophene-3-carbonitrile]
≤ 5 µM: all assays above

CNCC1CCCCCCN2CCOc3c(Cl)c(-c4ccc(F)c5sc(N)c(C#N)c45)c(F)c4nc(nc2c34)O1 (stereo not drawn) [Compound 157, 2-amino-4-(15-chloro-17-fluoro-4-((methylamino)methyl)-5,6,7,8,9,10,12,13-octahydro-4H-2,18-(azeno)benzo[6,7][1,4]oxazepino[5,4-d][1]oxa[3,5]diazacyclododecin-16-yl)-7-fluorobenzo[b]thiophene-3-carbonitrile]
≤ 5 µM: all assays above

CN(C)CC1CCNC(=O)CN2CCOc3c(Cl)c(-c4ccc(F)c5sc(N)c(C#N)c45)c(F)c4nc(nc2c34)O1 (stereo not drawn) [Compound 158, 2-amino-4-(14-chloro-4-((dimethylamino)methyl)-16-fluoro-8-oxo-4,5,6,7,8,9,11,12-octahydro-2,17-(azeno)benzo[6,7][1,4]oxazepino[5,4-d][1]oxa[3,5,8]triazacycloundecin-15-yl)-7-fluorobenzo[b]thiophene-3-carbonitrile]
≤ 5 µM: all assays above

CN1CCC[C@H]1[C@@H]1CC/C=C\CCN2CCOc3c(Cl)c(-c4ccc(F)c5sc(N)c(C#N)c45)c(F)c4nc(nc2c34)O1 [Compound 159, 2-amino-4-((4S,Z)-15-chloro-17-fluoro-4-((S)-1-methylpyrrolidin-2-yl)-5,6,9,10,12,13-hexahydro-4H-2,18-(azeno)benzo[6,7][1,4]oxazepino[5,4-d][1]oxa[3,5]diazacyclododecin-16-yl)-7-fluorobenzo[b]thiophene-3-carbonitrile]
≤ 5 µM: all assays above
